Test results published in ChEMBL document CHEMBL4706653, “Ultra-short lipopeptides against gram-positive bacteria while alleviating antimicrobial resistance” (Eur J Med Chem, 2021).
Values after ≈ are worked out from the molar mass of the structure shown. Active and inactive are the calls of the source. No cut-off for these calls is given here. Residues, ends and D or L forms follow the SMILES beside them. *: point of attachment. Myristoyl = CCCCCCCCCCCCCC(=O)*; Lauroyl = CCCCCCCCCCCC(=O)*

Assays:
Cell membrane [1] = test: Induction of membrane disruption in Staphylococcus aureus ATCC 25923 assessed as cell lysis at 4 times MIC measured after 2 to 4 hrs by SEM analysis; assay type: subcellular; conditions: time 2-4 hrs
Staphylococcus aureus [2] = test: Antimicrobial activity against Staphylococcus aureus ATCC 25923 after 18 hrs in presence of FeCl3 by broth microdilution method; assay type: functional
Staphylococcus aureus [3] = test: Antibiofilm activity against Staphylococcus aureus ATCC 25923 at 0.5 to 8 uM after 24 hrs by crystal violet staining based assay; assay type: functional, organism-based; conditions: dose 0.5-8 µM
Staphylococcus aureus [4] = test: Antimicrobial activity against Staphylococcus aureus ATCC 25923 after 18 hrs in presence of ZnCl2 by broth microdilution method; assay type: functional
Staphylococcus aureus [5] = test: Antimicrobial activity against Staphylococcus aureus ATCC 25923 after 18 hrs in presence of polymyxin B by checkerboard assay; assay type: functional, organism-based
Staphylococcus aureus [6] = test: Antimicrobial activity against ciprofloxacin-treated persistent form of Staphylococcus aureus ATCC 25923 assessed as bacterial killing at 8 times MIC preincubated up to 48 hrs followed by compound washout and subsequent replating on MHB agar by colony counting method; assay type: functional, organism-based; conditions: time hrs <=48
Staphylococcus aureus [7] = test: Antimicrobial activity against Staphylococcus aureus ATCC 25923 at 0.5 times MIC after 15 passages by broth microdilution method; assay type: functional, organism-based
Staphylococcus aureus [8] = test: Antimicrobial activity against methicillin-resistant Staphylococcus aureus 113 measured after 18 hrs in presence of polymyxin B by checkerboard assay; assay type: functional, organism-based
Staphylococcus aureus [9] = test: Potentiation of ciprofloxacin-induced antimicrobial activity against ciprofloxacin-resistant Staphylococcus aureus ATCC 25923 at 1 uM after 18 hrs by broth microdilution method; assay type: functional, organism-based
Bacillus subtilis = test: Antimicrobial activity against Bacillus subtilis ATCC 23857 after 18 hrs by broth microdilution method; assay type: functional
Staphylococcus aureus [10] = test: Antibiofilm activity against Staphylococcus aureus ATCC 25923 preformed biofilm assessed as preformed biofilm thickness at 64 uM after 24 hrs using LIVE/LEAD (SYTO-9/PI) staining by confocal laser scanning microscopy based 3D image analysis (reference value: 56 micrometer); assay type: functional
Cell membrane [11] = test: Induction of membrane disruption in Staphylococcus aureus ATCC 25923 assessed as appearance of rough membrane at 2 to 4 times MIC measured after 2 to 4 hrs by SEM analysis; assay type: subcellular; conditions: time 2-4 hrs
Staphylococcus aureus [12] = test: Antimicrobial activity against ciprofloxacin-resistant Staphylococcus aureus ATCC 25923 at 0.5 to 8 uM measured after 18 hrs in presence of ciprofloxacin by checkerboard assay; assay type: functional, organism-based; conditions: dose 0.5-8 µM
Cell membrane [13] = test: Induction of membrane disruption in Staphylococcus aureus ATCC 25923 assessed as increase in non-uniform cell debris level at 4 times MIC measured after 2 to 4 hrs by SEM analysis; assay type: subcellular; conditions: time 2-4 hrs
Staphylococcus aureus [14] = test: Antimicrobial activity against Staphylococcus aureus ATCC 25923 after 18 hrs in presence of MgCl2 by broth microdilution method; assay type: functional
Staphylococcus aureus [15] = test: Potentiation of ciprofloxacin-induced antimicrobial activity against ciprofloxacin-resistant Staphylococcus aureus ATCC 25923 assessed as change in ciprofloxacin MIC at 2 uM after 18 hrs by broth microdilution method relative to ciprofloxacin MIC; assay type: functional
Staphylococcus aureus [16] = test: Antibiofilm activity against Staphylococcus aureus ATCC 25923 assessed as reduction in biofilm thickness after 24 hrs using LIVE/LEAD (SYTO-9/PI) staining by confocal laser scanning microscopy based 3D image analysis; assay type: functional, organism-based; conditions: dose 4-8 µM
Staphylococcus aureus [17] = test: Antibiofilm activity against Staphylococcus aureus ATCC 25923 preformed biofilm assessed as preformed biofilm thickness at 32 uM after 24 hrs using LIVE/LEAD (SYTO-9/PI) staining by confocal laser scanning microscopy based 3D image analysis (reference value: 56 micrometer); assay type: functional
Staphylococcus aureus [18] = test: Antimicrobial activity against methicillin-resistant Staphylococcus aureus 113 after 18 hrs by broth microdilution method; assay type: functional
Cell membrane [19] = test: Induction of membrane disruption in Staphylococcus aureus ATCC 25923 assessed as PI-positive cells at 2 times MIC measured after 2 hrs by propidium iodide staining based flow cytometry relative to control
[20] = test system: Staphylococcus epidermidis; test: Antimicrobial activity against ciprofloxacin-resistant Staphylococcus epidermidis ATCC 12228 after 18 hrs by broth microdilution method; assay type: functional, organism-based
[21] = test system: Staphylococcus epidermidis; test: Potentiation of ciprofloxacin-induced antimicrobial activity against Staphylococcus epidermidis ATCC 12228 at 0.5 times MIC after 15 passages by broth microdilution method; assay type: functional, organism-based
Staphylococcus aureus [22] = test: Potentiation of ciprofloxacin-induced antimicrobial activity against ciprofloxacin-resistant Staphylococcus aureus ATCC 25923 assessed as ciprofloxacin MIC at 0.5 times MIC after 15 passages by broth microdilution method; assay type: functional
[23] = Binding affinity to LTA (unknown origin) assessed as bacterial killing at 2 times MIC preincubated for 1 hr followed by Staphylococcus aureus ATCC 25923 addition and measured after 2 hrs by colony counting method; conditions: time 3.0 hrs
[24] = test system: Staphylococcus epidermidis; test: Antimicrobial activity against ciprofloxacin-resistant Staphylococcus epidermidis ATCC 12228 after 18 hrs in presence of polymyxin B by checkerboard assay; assay type: functional, organism-based
Staphylococcus aureus [25] = test: Induction of reactive oxygen species generation in Staphylococcus aureus ATCC 25923 by […] dye based fluorescence assay; assay type: functional, organism-based
Staphylococcus aureus [26] = test: Antimicrobial activity against Staphylococcus aureus ATCC 25923 after 18 hrs in presence of KCl by broth microdilution method; assay type: functional
Cell membrane [27] = test: Induction of membrane disruption in Staphylococcus aureus ATCC 25923 assessed as PI-positive cells at 4 times MIC measured after 2 hrs by propidium iodide staining based flow cytometry relative to control
Staphylococcus aureus [28] = test: Antibiofilm activity against Staphylococcus aureus ATCC 25923 assessed as biofilm thickness at 8 uM after 24 hrs using LIVE/LEAD (SYTO-9/PI) staining by confocal laser scanning microscopy based 3D image analysis (reference value: 55 micrometer); assay type: functional
[29] = test system: Staphylococcus epidermidis; test: Antimicrobial activity against Staphylococcus epidermidis ATCC 12228 at 0.5 times MIC after 15 passages by broth microdilution method; assay type: functional, organism-based
[30] = test system: Staphylococcus epidermidis; test: Antimicrobial activity against Staphylococcus epidermidis ATCC 12228 after 18 hrs in presence of polymyxin B by checkerboard assay; assay type: functional, organism-based
Cell membrane [31] = test: Induction of membrane disruption in Staphylococcus aureus ATCC 25923 assessed as formation of dent at 2 to 4 times MIC measured after 2 to 4 hrs by SEM analysis; assay type: subcellular; conditions: time 2-4 hrs
Staphylococcus aureus [32] = test: Antimicrobial activity against Staphylococcus aureus ATCC 29213 after 18 hrs by broth microdilution method; assay type: functional
Cell membrane [33] = test: Induction of membrane disruption in Staphylococcus aureus ATCC 25923 assessed as membrane blebbing at 2 to 4 times MIC measured after 2 to 4 hrs by SEM analysis; assay type: subcellular; conditions: time 2-4 hrs
Staphylococcus aureus [34] = test: Potentiation of ciprofloxacin-induced antimicrobial activity against methicillin-resistant Staphylococcus aureus 75 assessed as change in ciprofloxacin MIC at 2 uM after 18 hrs by broth microdilution method relative to ciprofloxacin MIC; assay type: functional
Staphylococcus aureus [35] = test: Antimicrobial activity against Staphylococcus aureus ATCC 25923 after 18 hrs in presence of NaCl by broth microdilution method; assay type: functional
Staphylococcus aureus [36] = test: Antimicrobial activity against Staphylococcus aureus ATCC 25923 after 18 hrs by broth microdilution method; assay type: functional
Staphylococcus aureus [37] = test: Antimicrobial activity against ciprofloxacin-resistant Staphylococcus aureus ATCC 25923 at 0.5 to 8 uM measured after 18 hrs in presence of EtBr by checkerboard assay; assay type: functional, organism-based; conditions: dose 0.5-8 µM

In the case of CCCCCCCCCCCC(=O)N[C@@H](CCCNC(=N)N)C(=O)N[C@@H](CCCNC(=N)N)C(=O)N[C@@H](Cc1c[nH]c2ccccc12)C(N)=O (Lauroyl-Arg-Arg-Trp-NH2), the Activity (Cell membrane [1]) is reported as “Active”, the MIC (Staphylococcus aureus [2]) is reported as 4 µM and the Activity (Staphylococcus aureus [3]) is reported as “Active”. The MIC (Staphylococcus aureus [4]) was 8 µM, the Activity (Staphylococcus aureus [5]) was “Active” and the Activity (Staphylococcus aureus [6]) was “Active”. For the same molecule, the Activity (Staphylococcus aureus [7]) was “Active”, the Activity (Staphylococcus aureus [8]) was “Active” and the Activity (Staphylococcus aureus [9]) was “inactive”. For the same molecule, the MIC (Bacillus subtilis) was 4 µM (≈ 2.79 µg/mL), the Activity (Staphylococcus aureus [10]) was 40 um and the Activity (Cell membrane [11]) was “Active”. For the same molecule, the Activity (Staphylococcus aureus [12]) was “Active”, the Activity (Cell membrane [13]) was “Active” and the MIC (Staphylococcus aureus [14]) was 8 µM. For the same molecule, the “fold change (FC)” value (Staphylococcus aureus [15]) was 2, the Activity (Staphylococcus aureus [16]) was “Dose-dependent effect” and the Activity (Staphylococcus aureus [17]) was 30 um. The MIC (Staphylococcus aureus [18]) was 2 µM (≈ 1.4 µg/mL), the Activity (Cell membrane [19]) was 44.3% and the Activity [20] was “Active”. For the same molecule, the Activity [21] was “Active”, the MIC (Staphylococcus aureus [22]) was 8 µM and the Activity [23] was “Active”. For the same molecule, the Activity [24] was “Active”, the Activity (Staphylococcus aureus [25]) was “Active” and the MIC (Staphylococcus aureus [26]) was 8 µM. For the same molecule, the Activity (Cell membrane [27]) was “Active”, the Activity (Staphylococcus aureus [28]) was 20 um and the Activity [29] was “Active”. For the same molecule, the Activity [30] was “Active”, the Activity (Cell membrane [31]) was “Active” and the MIC (Staphylococcus aureus [32]) was 4 µM (≈ 2.79 µg/mL). For the same molecule, the Activity (Cell membrane [33]) was “Active”, the “fold change (FC)” value (Staphylococcus aureus [34]) was 2 and the MIC (Staphylococcus aureus [35]) was 16 µM. For the same molecule, the MIC (Staphylococcus aureus [36]) was 4 µM (≈ 2.79 µg/mL) and the Activity (Staphylococcus aureus [37]) was “Active”.

In the case of CCCCCCCCCCCCCC(=O)N[C@@H](CCCNC(=N)N)C(=O)N[C@@H](Cc1c[nH]c2ccccc12)C(=O)N[C@@H](Cc1c[nH]c2ccccc12)C(N)=O (Myristoyl-Arg-Trp-Trp-NH2), the Activity (Cell membrane [1]) is reported as “Active”, the MIC (Staphylococcus aureus [2]) is reported as 8 µM and the Activity (Staphylococcus aureus [3]) is reported as “Active”. For the same molecule, the MIC (Staphylococcus aureus [4]) was 8 µM, the Activity (Staphylococcus aureus [5]) was “Active” and the Activity (Staphylococcus aureus [6]) was “Active”. For the same molecule, the Activity (Staphylococcus aureus [7]) was “Active”, the Activity (Staphylococcus aureus [8]) was “Active” and the Activity (Staphylococcus aureus [9]) was “inactive”. The MIC (Bacillus subtilis) was 4 µM (≈ 3.02 µg/mL), the Activity (Staphylococcus aureus [10]) was 24 um and the Activity (Cell membrane [11]) was “Active”. The Activity (Staphylococcus aureus [12]) was “Active”, the Activity (Cell membrane [13]) was “Active” and the MIC (Staphylococcus aureus [14]) was 4 µM. For the same molecule, the “fold change (FC)” value (Staphylococcus aureus [15]) was 2, the Activity (Staphylococcus aureus [16]) was “Dose-dependent effect” and the Activity (Staphylococcus aureus [17]) was 40 um. For the same molecule, the MIC (Staphylococcus aureus [18]) was 4 µM (≈ 3.02 µg/mL), the Activity (Cell membrane [19]) was 74.8% and the Activity [20] was “Active”. The Activity [21] was “Active”, the MIC (Staphylococcus aureus [22]) was 8 µM and the Activity [23] was “Active”. The Activity [24] was “Active”, the Activity (Staphylococcus aureus [25]) was “Active” and the MIC (Staphylococcus aureus [26]) was 8 µM. The Activity (Cell membrane [27]) was 88.9%, the Activity (Staphylococcus aureus [28]) was 16 um and the Activity [29] was “Active”. For the same molecule, the Activity [30] was “Active”, the Activity (Cell membrane [31]) was “Active” and the MIC (Staphylococcus aureus [32]) was 8 µM (≈ 6.05 µg/mL). For the same molecule, the Activity (Cell membrane [33]) was “Active”, the “fold change (FC)” value (Staphylococcus aureus [34]) was 2 and the MIC (Staphylococcus aureus [35]) was 8 µM. For the same molecule, the MIC (Staphylococcus aureus [36]) was 8 µM (≈ 6.05 µg/mL) and the Activity (Staphylococcus aureus [37]) was “Active”.
